Test results published in US20250197864A1, “LNCRNA TRANSCRIPTS IN MELANOMAGENESIS” (The Regents of the University of California, priority 2021, published 2025).

Columns and labels:
Test in all cases: Cell viability assay (ATP quantitation)
[1] = test system: AV5 primary melanoma cell line; format: cell-based, human; settings: 50 nM, 5 days (120 hrs), vs non-targeting control
Summary of the method: (§1)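 Transfection used Lipofectamine 3000 with 50 nM final oligonucleotide unless otherwise specified; MEKi was added for combination work. Plates were read for total luminescence at day 3 (synergy) or day 5 (ASO only).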

D04 melanoma cell line = format: cell-based, human; settings: 50 nM, 5 days (120 hrs), vs non-targeting control
Summary of the method: as §1

[2] = test system: Hs852.T primary melanoma cell line; format: cell-based, human; settings: 50 nM, 5 days (120 hrs), vs non-targeting control
Summary of the method: as §1

MM415 melanoma cell line = format: cell-based, human; settings: 50 nM, 5 days (120 hrs), vs non-targeting control
Summary of the method: as §1

[3] = test system: Sk-Mel-2 melanoma cell line; format: cell-based, human; settings: 50 nM, 5 days (120 hrs), vs non-targeting control
Summary of the method: as §1

[4] = test system: Sk-Mel-28 melanoma cell line; format: cell-based, human; settings: 50 nM, 5 days (120 hrs), vs non-targeting control
Summary of the method: as §1

VMM39 melanoma cell line = format: cell-based, human; settings: 50 nM, 5 days (120 hrs), vs non-targeting control
Summary of the method: as §1

[5] = test system: WM1366 melanoma cell line; format: cell-based, human; settings: 50 nM, 5 days (120 hrs), vs non-targeting control
Summary of the method: as §1

[6] = test system: WM3211 melanoma cell line; format: cell-based, human; settings: 50 nM, 5 days (120 hrs), vs non-targeting control
Summary of the method: as §1

[7] = test system: WM3629 melanoma cell line; format: cell-based, human; settings: 50 nM, 5 days (120 hrs), vs non-targeting control
Summary of the method: as §1

[8] = test system: A-172 Glioblastoma cell line; format: cell-based; settings: 50 nM, 5 days, vs non-targeting control
Summary of the method: as §1

AV1 melanoma cell line = format: cell-based; settings: 50 nM, 5 days, vs non-targeting control
Summary of the method: as §1

AV4 melanoma cell line = format: cell-based; settings: 50 nM, 5 days, vs non-targeting control
Summary of the method: as §1

[9] = test system: H2228 lung cancer cell line; format: cell-based; settings: 50 nM, 5 days, vs non-targeting control
Summary of the method: as §1

[10] = test system: H82 lung cancer cell line; format: cell-based; settings: 50 nM, 5 days, vs non-targeting control
Summary of the method: as §1

[11] = test system: H929 multiple myeloma cell line; format: cell-based; settings: 50 nM, 5 days, vs non-targeting control
Summary of the method: as §1

[12] = test system: HCT116 colon carcinoma cell line; format: cell-based; settings: 50 nM, 5 days, vs non-targeting control
Summary of the method: as §1

[13] = test system: L363 multiple myeloma cell line; format: cell-based; settings: 50 nM, 5 days, vs non-targeting control
Summary of the method: as §1

[14] = test system: MaMel30 melanoma cell line; format: cell-based; settings: 50 nM, 5 days, vs non-targeting control
Summary of the method: as §1

[15] = test system: SW1271 lung cancer cell line; format: cell-based; settings: 50 nM, 5 days, vs non-targeting control
Summary of the method: as §1

[16] = test system: SW480 colon carcinoma cell line; format: cell-based; settings: 50 nM, 5 days, vs non-targeting control
Summary of the method: as §1

[17] = test system: Sk-Mel-5 melanoma cell line; format: cell-based; settings: 50 nM, 5 days, vs non-targeting control
Summary of the method: as §1

[18] = test system: Sk-N-AS Neuroblastoma cell line; format: cell-based; settings: 50 nM, 5 days, vs non-targeting control
Summary of the method: as §1

[19] = test system: T98G Glioblastoma cell line; format: cell-based; settings: 50 nM, 5 days, vs non-targeting control
Summary of the method: as §1

[20] = test system: U138-MG Glioblastoma cell line; format: cell-based; settings: 50 nM, 5 days, vs non-targeting control
Summary of the method: as §1

[21] = test system: U20S osteosarcoma cell line; format: cell-based; settings: 50 nM, 5 days, vs non-targeting control
Summary of the method: as §1

[22] = test system: U87-MG Glioblastoma cell line; format: cell-based; settings: 50 nM, 5 days, vs non-targeting control
Summary of the method: as §1

[23] = test system: WM3060 melanoma cell line; format: cell-based; settings: 50 nM, 5 days, vs non-targeting control
Summary of the method: as §1

[24] = test system: XG-1 multiple myeloma cell line; format: cell-based; settings: 50 nM, 5 days, vs non-targeting control
Summary of the method: as §1

[25] = test system: D04RM trametinib resistant melanoma cell line; format: cell-based; settings: 50 nM, 5 days, vs non-targeting control
From the text: (§2) Human melanoma cell line VMM39 was purchased from American Type Culture Collection (ATCC). Human melanoma cell lines D04, MM415, WM1366, WM3629, WM3211, Sk-Mel-2 and Sk-Mel-28 were a generous gift from Boris Bastian at the University of California, San Francisco. Primary human melanoma cell line Hs852.T was purchased from the Cell Culture Core Facility (CCCF) at the University of California, San Francisco. Primary human melanoma cell line AV5 was obtained from metastasis of a melanoma patient. All experimental protocols were approved by UCSF Human Research Protection Program Institutional Review Board (IRB #12-0948), all patients signed informed consent, and methods were carried out in accordance with relevant guidelines and regulations. Resistant cell lines DO4RM, MM415RM, Sk-Mel-2RM and WM3629RM were established as previously described. [Sanlorenzo, M. et al., The lincRNA MIRAT binds to IQGAPI and modulates the MAPK pathway in NRAS mutant melanoma. Sci Rep 8, 10902 (2018).] Primary human melanocytic cell lines (PHM) from infant foreskin of five healthy donors were available in our cell repository and pooled. Melanoma cell lines were maintained in RPMI 1640 media supplemented with 10% (vol/vol) heat inactivated fetal bovine serum. Melanocytes were maintained in M254 medium with HMGS supplements (1× final solution). All cell lines were incubated at 37° C. under 5% CO2.
(§3) EsiRNA, siRNA and ASO GapmeRs were transfected in a final concentration of 50 nM unless mentioned otherwise and the transfection reagent Lipofectamine 3000 (2 ul/ml) was added according to the manufacturer's instructions.
(§4) Dependent on cell doubling time, 0.7-2×10^^3 cells were seeded in 96 well plates. 1 day after seeding cells were incubated in media with oligonucleotide concentration and/or MEKi and transfection reagent. 3 (synergy experiments) or 5 (solely ASO) days after transfection Total luminescence was measured on the SynergyHT plate reader (BioTek) using Gen5 software.

[26] = test system: MM415RM trametinib resistant melanoma cell line; format: cell-based; settings: 50 nM, 5 days, vs non-targeting control
From the text: as §2, §3, §4

[27] = test system: Sk-Mel-2-RM trametinib resistant melanoma cell line; format: cell-based; settings: 50 nM, 5 days, vs non-targeting control
From the text: as §2, §3, §4

[28] = test system: WM3629RM trametinib resistant melanoma cell line; format: cell-based; settings: 50 nM, 5 days, vs non-targeting control
From the text: as §2, §3, §4

Measured: cell viability decrease

ACATGGATTGGTAGTG (QIAGEN GapmeR, modification pattern not given here) [SEQ ID NO: 17, Antisense oligonucleotide targeting RP11-7011.3-001, 002 and 003]
significant cell viability decrease: all assays above
